System: P12-Ichikawa
Assay: cell viability relative to DMSO control; higher = less cytotoxic
Settings: 48 h
Method in brief: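 NOMO1 or SEM (500 cells/well) or P12-Ichikawa (1000 cells/well) leukemia cells were adapted for at least four passages in each medium. They were seeded in 1536-well plates (5 μl) and pin-dosed with library compounds in DMSO over an 11-point threefold series, 47 μM to 0.79 nM. CellTiter-Glo One luminescence was read after 48 h at 37°C. Viability is the per-plate percentage relative to DMSO wells, with cell-free wells as background.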

[1] = HPLM + 10% dialyzed FBS, 0.000781 µM
[2] = HPLM + 10% dialyzed FBS, 0.00234 µM
[3] = HPLM + 10% dialyzed FBS, 0.00702 µM
[4] = HPLM + 10% dialyzed FBS, 0.0211 µM
[5] = HPLM + 10% dialyzed FBS, 0.0632 µM
[6] = HPLM + 10% dialyzed FBS, 0.19 µM
[7] = HPLM + 10% dialyzed FBS, 0.569 µM
[8] = HPLM + 10% dialyzed FBS, 1.71 µM
[9] = HPLM + 10% dialyzed FBS, 5.12 µM
[10] = HPLM + 10% dialyzed FBS, 15.4 µM
[11] = HPLM + 10% dialyzed FBS, 46.1 µM
[12] = RPMI 5 mM glucose + 10% FBS, 0.000781 µM
[13] = RPMI 5 mM glucose + 10% FBS, 0.00234 µM
[14] = RPMI 5 mM glucose + 10% FBS, 0.00702 µM
[15] = RPMI 5 mM glucose + 10% FBS, 0.0211 µM
[16] = RPMI 5 mM glucose + 10% FBS, 0.0632 µM
[17] = RPMI 5 mM glucose + 10% FBS, 0.19 µM
[18] = RPMI 5 mM glucose + 10% FBS, 0.569 µM
[19] = RPMI 5 mM glucose + 10% FBS, 1.71 µM
[20] = RPMI 5 mM glucose + 10% FBS, 5.12 µM
[21] = RPMI 5 mM glucose + 10% FBS, 15.4 µM
[22] = RPMI 5 mM glucose + 10% FBS, 46.1 µM
[23] = RPMI 5 mM glucose + 10% dialyzed FBS, 0.000781 µM
[24] = RPMI 5 mM glucose + 10% dialyzed FBS, 0.00234 µM
[25] = RPMI 5 mM glucose + 10% dialyzed FBS, 0.00702 µM
[26] = RPMI 5 mM glucose + 10% dialyzed FBS, 0.0211 µM
[27] = RPMI 5 mM glucose + 10% dialyzed FBS, 0.0632 µM
[28] = RPMI 5 mM glucose + 10% dialyzed FBS, 0.19 µM
[29] = RPMI 5 mM glucose + 10% dialyzed FBS, 0.569 µM
[30] = RPMI 5 mM glucose + 10% dialyzed FBS, 1.71 µM
[31] = RPMI 5 mM glucose + 10% dialyzed FBS, 5.12 µM
[32] = RPMI 5 mM glucose + 10% dialyzed FBS, 15.4 µM
[33] = RPMI 5 mM glucose + 10% dialyzed FBS, 46.1 µM

Row | SMILES | cell viability [1] | cell viability [2] | cell viability [3] | cell viability [4] | cell viability [5] | cell viability [6] | cell viability [7] | cell viability [8] | cell viability [9] | cell viability [10] | cell viability [11] | cell viability [12] | cell viability [13] | cell viability [14] | cell viability [15] | cell viability [16] | cell viability [17] | cell viability [18] | cell viability [19] | cell viability [20] | cell viability [21] | cell viability [22] | cell viability [23] | cell viability [24] | cell viability [25] | cell viability [26] | cell viability [27] | cell viability [28] | cell viability [29] | cell viability [30] | cell viability [31] | cell viability [32] | cell viability [33]
1 | OC1=CC=C(C=C1)\C2=C\OC3=C(C=CC(=C3)O)C2=O | 112% | 107% | 105% | 97.2% | 110% | 104% | 102% | 99.2% | 92.7% | 102% | 98.1% | 98.3% | 90.4% | 103% | 99.1% | 100% | 87% | 90.9% | 89.5% | 92.9% | 86.9% | 89.7% | 100% | 96.3% | 95.4% | 99.9% | 97.3% | 96.7% | 95.8% | 98.1% | 93.1% | 90.3% | 88%
2 | CCCCCCCCCCCCCCCCCCCCCCO | 122% | 125% | 118% | 125% | 126% | 126% | 132% | 133% | 127% | 137% | 140% |  |  |  |  |  |  |  |  |  |  |  |  |  |  |  |  |  |  |  |  |  | 
3 | CCc1cc(Nc2nccc(-c3c(-c4ccc(OC)c(C(=O)Nc5c(F)cccc5F)c4)nc4ccccn34)n2)c(OC)cc1N1CCC(N2CCN([S+](C)(=O)[O-])CC2)CC1 | 97.9% | 108% | 100% | 112% | 107% | 112% | 110% | 110% | 112% | 87.1% | 39.8% | 98.3% | 101% | 106% | 105% | 107% | 113% | 111% | 113% | 109% | 85.1% | 37.9% | 108% | 116% | 112% | 114% | 107% | 107% | 109% | 125% | 115% | 87.4% | 49.6%
4 | CCc1cncnc1N1CCN(Cc2nc3cc(C(F)(F)F)ccc3[nH]2)CC1 | 103% | 106% | 100% | 102% | 103% | 102% | 94.1% | 97.9% | 85.7% | 84% | 58% | 101% | 97.6% | 95.2% | 97.2% | 101% | 88.8% | 97.2% | 101% | 88.1% | 74.9% | 44.9% | 96.6% | 105% | 102% | 103% | 95.6% | 97.3% | 96.4% | 101% | 86.5% | 84.7% | 55.3%
5 | C[C@H]1[C@H](NC(=O)/C(=N/OC(C)(C)C(=O)O)c2csc(N)n2)C(=O)N1[S+](=O)([O-])O | 108% | 116% | 109% | 102% | 106% | 117% | 111% | 105% | 109% | 95.3% | 103% | 99.3% | 102% | 97.1% | 102% | 101% | 106% | 101% | 110% | 98.4% | 93.4% | 97.3% | 81.3% | 101% | 101% | 102% | 110% | 102% | 101% | 93.8% | 93.3% | 99.4% | 92.3%
6 | CN[S+](=O)([O-])Cc1ccc2[nH]cc(CCN(C)C)c2c1 | 110% | 122% | 112% | 118% | 123% | 126% | 123% | 123% | 116% | 120% | 126% | 115% | 123% | 125% | 116% | 128% | 119% | 131% | 136% | 125% | 130% | 131% | 106% | 113% | 113% | 122% | 119% | 121% | 128% | 131% | 121% | 127% | 121%
7 | COc1nccc(-c2c(-c3ccc(F)cc3)ncn2C2CCNCC2)n1 | 99.1% | 108% | 113% | 110% | 113% | 100% | 96% | 100% | 104% | 90.6% | 80.2% | 109% | 112% | 106% | 120% | 117% | 106% | 108% | 98.2% | 109% | 104% | 90.5% | 98.2% | 111% | 117% | 111% | 119% | 110% | 106% | 98.9% | 104% | 94.7% | 80.7%
8 | CNC(=O)c1ccc(-c2cnc3ncc(Cc4ccc5ncccc5c4)n3n2)cc1F | 113% | 119% | 125% | 129% | 136% | 125% | 134% | 120% | 135% | 124% | 126% |  |  |  |  |  |  |  |  |  |  |  |  |  |  |  |  |  |  |  |  |  | 
9 | CC(C)C(C)/C=C/C(C)C1CCC2C3=CC=C4CC(O)CCC4(C)C3CCC21C (stereo not drawn) | 110% | 105% | 97.8% | 109% | 99.5% | 96.6% | 111% | 94.4% | 106% | 97.8% | 97.3% | 99.1% | 99.4% | 98.3% | 106% | 96.7% | 98.4% | 102% | 97.6% | 93.5% | 94.5% | 92.2% | 91.1% | 94.8% | 102% | 97.1% | 103% | 96.7% | 97.5% | 96.8% | 92.8% | 91% | 89.4%

Source: the supplement of paper PMC11451515
